Test results reported in US8318446B2, “DNA-damage-induced proteolysis” (California Institute of Technology, priority 2008, dated 2012).
Like-named read-outs stand apart in the source and are kept apart here.

Columns and labels:
Bcl-xL [1] = assay: Bcl-xL level in extracts of MESC2.10 neurons, Western blotting; type: cell-based, human; conditions: MESC2.10 neurons pre-treated or transduced, then etoposide
Excerpt: FIG. 6A is a western blot showing the expression of Bcl-XL. Extracts of control and etoposide-treated MESC2.10 neurons were examined for Bcl-xL by Western blotting. […] Fold changes were normalized to the intensity of loading control, and compared to that of untreated control neurons (lane 5).

endogenous Htt = assay: Etoposide-induced Htt proteolysis in MESC2.10 neurons, Western blotting with anti-Htt mAb 2166; type: cell-based, human; conditions: pre-incubation 1 hr prior to 10 μM etoposide; sodium salicylate 5 mg/ml, caspase inhibitors 20 μM
Excerpt: Extracts were examined for Htt by Western blotting. […] Fold changes for full-length Htt levels were obtained by measuring the band intensity in each lane, normalized to tubulin and compared to non-treated control.
EGFP-lentivirus was used a control (C). […] Second and third panels show staining for Bcl-xL and pro-caspase-3, respectively. IKKγ levels were used as a loading control.
(§1) Neurons were harvested and separated into cytoplasmic and nuclear fractions using the NE-PER kit (PIERCE) according to instructions. For most experiments, ˜120 μg of lysate were used for SDS-PAGE and Western blotting with the indicated antibodies. Reactive bands in Western blots were detected by enhanced chemiluminescence (ECL) using a gel documentation system.

caspase-3 = type: cell-based, human; conditions: etoposide 6 hrs; DEVD-p-nitroanaline substrate; sodium salicylate 5 mg/ml 1 hour prior
recombinant IKKβ = recombinant IKKβ (Homo sapiens, UniProt O14920); conditions: full-length Bcl-xL, 32P-γ-ATP, 30 min at 30° C.
Protocol: Active recombinant IKKα or IKKβ were tested for the ability to phosphorylate Bcl-xL. The kinase assay was performed using recombinant Bcl-xL as a substrate. Products were visualized by autoradiography. IκBα was used as a positive control substrate for IKKα.
To determine IKKα activity, lyastes were first depleted of IKKβ complexes using 4 μg of anti-IKKγ and anti-IKKβ antibodies coupled to protein G. The depleted lysates were used to isolate IKKα complexes with 2 μg of anti-IKKα antibody. GST-IκBα was used as a substrate to measure kinase activity. To examine whether IKKs phosphorylate Bcl-xL, 0.5 μg of either IKKα or IKKβ were incubated with 1 μg of full-length Bcl-xL in the presence of 32P-γ-ATP for 30 min at 30° C. GST protein was used as a negative control. All kinase products were examined by SDS-PAGE and autoradiography.
The possibility that activated IKKβ phosphorylates Bcl-xL was tested. To avoid contamination with other neuronal kinases that may co-immunoprecipitate with IKKβ, recombinant IKKs were used for in vitro kinase assays with Bcl-xL as the substrate.

caspase-6 = type: cell-based, human; conditions: etoposide 6 hrs; VEID-p-nitroanaline substrate; sodium salicylate 5 mg/ml 1 hour prior
Htt = assay: γ-irradiation-induced Htt cleavage in MESC2.10 neurons; type: cell-based, human; conditions: 5 Gy, 6 hours; sodium salicylate 5 mg/ml 1 hour prior to irradiation
Protocol: Cells were irradiated with 5 Gy and further incubated for the indicated time. Sodium salicylate (NaSal, lane 5) was added at a concentration of 5 mg/ml 1 hour prior to irradiation and incubated for 6 hours. […] Lanes 7 and 8 represent MESC2.10 neurons transduced with an IKKβ shRNA lentivirus (FIG. 4A) and irradiated with 5 Gy and incubated for 6 hours. […] Tubulin was used as a loading control
To confirm that Htt cleavage is induced by DNA damage and not other, secondary effects of etopoisde, we examined whether DNA damage induced by γ-irradiation of neurons could have a similar effect on Htt cleavage. […] The difference may be due to rapid induction of double stranded DNA breaks by irradiation.

Bcl-xL [2] = conditions: Hdh^Q111/Q111 neurons; NaSal 5 mg/ml 1 hour prior to 10 μM etoposide
Protocol: as §1

IKKα = assay: Activation of IKKα in MESC2.10 neurons expressing Flag-tagged IKKα, immune kinase assay; type: cell-based, human; conditions: neurons starved for growth factors 8 hours; IGF-1 20 ng/ml, netrin 100 ng/ml
Protocol: IGF-1 was added at 20 ng/ml for the indicated time.
Netrin was added at 100 ng/ml for the indicated time.
The ability of a molecule to increase IKKα activation can be measured using assays that are well known in the art. For example and without limitation, IKKα activators can be identified using immune kinase assays and gene reporter assay. In an example of immune kinase assays, MESC2.10 neurons engineered to express a Flag-tagged IKKα are starved for growth factors for 8 hours. Candidate IKKα activators are added, respectively, to the starved MESC2.10 neurons for desired period of time. Neurons are harvested and cytoplasmic extracts are used to immunoprecipitate IKKα using agarose beads coupled to anti-Flag antibody. Complexes are assayed for the ability to phosphorylate a recombinant substrate GST-IκBα in the presence of radioactive […]. Products are examined by SDS-PAGE followed by autoradiography.
MESC2.10 neurons engineered to express a Flag-tagged IKKα were starved for growth factors for 8 hours. 20 ng/ml insulin-like growth factor-1 (IGF-1) and 100 ng/ml netrin were added, respectively, to the starved MESC2.10 neurons for the indicated time. […] Fold changes of IKK activity were quantified by measuring the band intensity using Image J, and compared to non-treated neurons.

IKKβ = target: T1, IKKβ (Homo sapiens, UniProt O14920); conditions: cited from earlier work
T1 sequence (O14920 1-756): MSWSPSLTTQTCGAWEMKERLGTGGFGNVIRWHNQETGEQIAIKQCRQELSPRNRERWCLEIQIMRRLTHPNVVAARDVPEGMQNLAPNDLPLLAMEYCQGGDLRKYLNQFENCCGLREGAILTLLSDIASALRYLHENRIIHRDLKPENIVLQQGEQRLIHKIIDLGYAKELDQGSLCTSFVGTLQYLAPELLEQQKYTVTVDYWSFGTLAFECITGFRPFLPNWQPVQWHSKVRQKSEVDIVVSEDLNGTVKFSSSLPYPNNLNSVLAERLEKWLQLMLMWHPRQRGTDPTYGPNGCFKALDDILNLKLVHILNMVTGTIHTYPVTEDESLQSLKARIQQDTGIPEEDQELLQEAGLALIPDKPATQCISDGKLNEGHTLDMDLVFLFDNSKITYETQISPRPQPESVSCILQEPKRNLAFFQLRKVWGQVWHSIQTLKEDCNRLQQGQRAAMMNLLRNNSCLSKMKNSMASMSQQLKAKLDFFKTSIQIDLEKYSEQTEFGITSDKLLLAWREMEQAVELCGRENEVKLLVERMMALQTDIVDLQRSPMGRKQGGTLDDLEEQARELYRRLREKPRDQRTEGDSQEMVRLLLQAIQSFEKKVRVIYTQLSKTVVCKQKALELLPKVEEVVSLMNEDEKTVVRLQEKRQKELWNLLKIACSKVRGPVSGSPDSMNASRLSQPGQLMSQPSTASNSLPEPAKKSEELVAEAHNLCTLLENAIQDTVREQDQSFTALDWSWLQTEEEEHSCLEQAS

## O=C([O-])c1ccccc1O.[Na+] [sodium salicylate]
Bcl-xL [1]
  effect on etoposide-induced reduction of Bcl-xL: did not affect Bcl-xL
Endogenous Htt
  effect on etoposide-induced Htt proteolysis: blocks etoposide-induced Htt proteolysis
caspase-3
  caspase-3 activity in neuronal extracts: lowered the etoposide-induced activation of caspases
Recombinant IKKβ
  phosphorylation of Bcl-xL by IKKβ: prevented the reaction
caspase-6
  caspase-6 activity in neuronal extracts: lowered the etoposide-induced activation of caspases
Htt
  effect on Htt cleavage induced by γ-irradiation: blocked Htt cleavage
Bcl-xL [2]
  effect on etoposide-induced reduction of Bcl-xL: prevented

## Ac-DEVD-CHO
Endogenous Htt
  effect on etoposide-induced Htt proteolysis: reduced Htt proteolysis

## Ac-VEID-aldehyde
Endogenous Htt
  effect on etoposide-induced Htt proteolysis: no significant effect

## IGF-1: insulin-like growth factor-1, IKKα activator
IKKα
  activation of IKKα: activates IKKα

## arsenite
IKKβ
  IKKβ activation: potently inhibited IKKβ activation
